Read-outs that look alike come from different tables or passages of the source.
Legend:
HL-7002 cells = assay: cell viability (MTS) assay, fetal hepatocytes HL-7002; format: cell-based, human; conditions: HL-7002 immortalized fetal hepatic cells, 0.01 to 300 μM, OD490, read-out: IC50 to reduce HL-7002 cell number
Method: (§1) The index of cell growth repression ratio was obtained by comparing the OD490 data of treatment group to the negative control. The drug response rate IC50 was calculated with the SPSS 16.0 system.
(§2) Cell culture: Prostate cancer cell lines LNCaP and PC-3 were purchased from ATCC (Manassas, Va.). The fetal hepatocytes HL-7002 and human embryonic kidney cells […] were purchased from ATCC. The cells were cultured in RPMI+5% Fetal Bovine Serum (FBS).
(§3) The cells treated with the solvents were used as the negative control, and cisplatin and docetaxel were used as the positive controls. The cells were monitored daily, and the cell viability was evaluated with the Promega CellTiter 96 AQueous One Solution Cell Proliferation Assay (Promega, Madison, Wis., USA) according to the manufacture manuals. The cell viability was monitored at OD490 reading in a bio-spectrometer (Perkin Elmer, Walthan, Mass., USA).
(§4) Data analysis: The OD490 reading data were collected hourly from 1 h to 4 h after the addition of lysis buffer. The index of cell growth repression ratio was obtained by comparing the OD490 data of treatment to the negative control. The drug response rate IC50 was calculated with the SPSS 16.0.
The index of cell growth repression ratio was obtained by comparing the OD490 data of treatment group to the negative control. The drug response rate IC50 was calculated with the SPSS 16.0 system. […]

HEK293 cells = assay: cell viability (MTS) assay, embryonic kidney cell line HEK293; format: cell-based, human; conditions: HEK293 immortalized fetal kidney cells, 0.01 to 300 μM, OD490, read-out: IC50 to reduce HEK293 cells
Method: HEK293 cells are an immortalized human fetal kidney cell line. […] The index of cell growth repression ratio was obtained by comparing the OD490 data of treatment group to the negative control. The drug response rate IC50 was calculated with the SPSS 16.0 system.
as §2, §3, §4, §1
(§5) Cell culture: Colorectal cancer cell lines HCT-116 and HT29 were purchased from ATCC (Manassas, Va.). The fetal hepatocytes HL-7002 and human embryonic kidney cells […] were purchased from ATCC. The cells were cultured in RPMI+5% Fetal Bovine Serum (FBS).

HCT-116 cells = assay: cell viability (MTS) assay, HCT-116 colorectal cancer cells; format: cell-based; conditions: drugs 0.01 to 300 μM, OD490, read-out: IC50 to reduce HCT-116 cell number
Method: HCT-116 cells are a colorectal cancer cell line. […] The index of cell growth repression ratio was obtained by comparing the OD490 data of treatment group to the negative control. The drug response rate IC50 was calculated with the SPSS 16.0 system.
as §5, §3, §4

HT29 cells = assay: cell viability (MTS) assay, HT29 colorectal cancer cells; format: cell-based; conditions: OD490, read-out: IC50 to reduce HT29 cell number
Method: HT29 cells are a colorectal cancer cell line. […] The index of cell growth repression ratio was obtained by comparing the OD490 data of treatment group to the negative control. The drug response rate IC50 was calculated with the SPSS 16.0 system.
as §5, §3, §4

PC-3 cells = assay: cell viability (MTS) assay, PC-3 prostate cancer cells; format: cell-based; conditions: Homo sapiens, drugs 0.01 to 300 μM, OD490, read-out: IC50 to reduce PC-3 cell number
Method: The index of cell growth repression ratio was obtained by comparing the OD490 data of treatment group to the negative control. The drug response rate IC50 was calculated with the SPSS 16.0 system. […] The fetal hepatocytes HL-7002 and human embryonic kidney cells […] were purchased from ATCC. The cells were cultured in RPMI+5% Fetal Bovine Serum (FBS). […] The cells treated with the solvents were used as the negative control, and cisplatin and docetaxel were used as the positive controls. The cells were monitored daily, and the cell viability was evaluated with the Promega CellTiter 96 AQueous One Solution Cell Proliferation Assay (Promega, Madison, Wis., USA) according to the manufacture manuals. The cell viability was monitored at OD490 reading in a bio-spectrometer (Perkin Elmer, Walthan, Mass., USA). Data analysis: The OD490 reading data were collected hourly from 1 h to 4 h after the addition of lysis buffer. The index of cell growth repression ratio was obtained by comparing the OD490 data of treatment to the negative control. The drug response rate IC50 was calculated with the SPSS 16.0.

LNCaP cells = assay: cell viability (MTS) assay, LNCaP prostate cancer cells; format: cell-based; conditions: Homo sapiens, drugs 0.01 to 300 μM, OD490, read-out: IC50 to reduce LNCaP cell number
Method: The index of cell growth repression ratio was obtained by comparing the OD490 data of treatment group to the negative control. The drug response rate IC50 was calculated with the SPSS 16.0 system. Cell culture: Prostate cancer cell lines LNCaP and PC-3 were purchased from ATCC (Manassas, Va.). The fetal hepatocytes HL-7002 and human embryonic kidney cells […] were purchased from ATCC. The cells were cultured in RPMI+5% Fetal Bovine Serum (FBS). […] The cells treated with the solvents were used as the negative control, and cisplatin and docetaxel were used as the positive controls. The cells were monitored daily, and the cell viability was evaluated with the Promega CellTiter 96 AQueous One Solution Cell Proliferation Assay (Promega, Madison, Wis., USA) according to the manufacture manuals. The cell viability was monitored at OD490 reading in a bio-spectrometer (Perkin Elmer, Walthan, Mass., USA). Data analysis: The OD490 reading data were collected hourly from 1 h to 4 h after the addition of lysis buffer. The index of cell growth repression ratio was obtained by comparing the OD490 data of treatment to the negative control. The drug response rate IC50 was calculated with the SPSS 16.0.

Structure (SMILES)	IC50 (HL-7002 cells)	IC50 (HEK293 cells)	IC50 (HCT-116 cells)	IC50 (HT29 cells; drugs 0.01 to 300 μM)	IC50 (PC-3 cells)	IC50 (LNCaP cells)	IC50 (HEK293 cells; Homo sapiens)	IC50 (HL-7002 cells; Homo sapiens, Hepatocyte)	IC50 (HCT-116 cells; Homo sapiens)	IC50 (HT29 cells; Homo sapiens, HT-29, drugs 0.01 to 300 μM)
O=C1[O][Pt]2([NH][C@@H]3CCCC[C@H]3[NH]2)[O]C1=O [oxaliplatin]	2.44 µM	10.1 µM	8.15 µM	30 µM	–	–	–	–	–	–
CC(=O)O[C@@]12CO[C@@H]1C[C@H](O)[C@@]1(C)C(=O)[C@H](O)C3=C(C)[C@@H](OC(=O)[C@H](O)[C@@H](NC(=O)OC(C)(C)C)c4ccccc4)C[C@@](O)([C@@H](OC(=O)c4ccccc4)[C@H]21)C3(C)C [docetaxel]	–	–	–	–	49.9 µM	4.03 µM	1.74 µM	–	–	–
O=c1[nH]cc(F)c(=O)[nH]1 [5-FU, fluorouracil]	–	–	–	–	–	–	3.74 µM	4.42 µM	4.21 µM	7.56 µM

From US10421770B2, “Pharmaceutical composition of carboplatin based co-crystals and use thereof” (SYN-NAT PRODUCTS ENTERPRISE LLC, priority 2015, dated 2019)
